Common to all, as to format: cell-based
One assay has as its system Klebsiella pneumonia. The experiment in a line: MIC against Gram-negative bacteria: Klebsiella pneumonia. The method, boiled down: (§1)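 The recombinant human-originated EGF domain proteins were serially diluted two-fold against bacteria at 5×10^5 CFU/mL in LB medium. After shaken incubation at 37° C, the lowest concentration with no bacterial growth was recorded as the MIC.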

Another assay relates to Enterobacter cloacae. In words: MIC against Gram-negative bacteria: Enterobacter cloacae. The method, boiled down: as §1
Another assay relates to Moraxella catarrhalis. In words: MIC against Gram-negative bacteria: Moraxella catarrhalis. In a few lines:
as §1

The next assay deals with E. coli BL21. In words: MIC against Gram-negative bacteria: E. coli BL21. The settings on record: E. coli BL21. The method, boiled down:
as §1

The test system of a further assay is Proteus mirabilis. The experiment in a line: MIC against Gram-negative bacteria: Proteus mirabilis. The method, boiled down: as §1
In another assay the test system is Proteus vulgaris. The experiment in a line: MIC against Gram-negative bacteria: Proteus vulgaris. The method, boiled down: as §1
The test system of the next assay is E. coli DH5α. The experiment in a line: Antibacterial activity: MIC and growth curve against E. coli DH5α in 96-well plate. The settings on record: minimal inhibitory concentration against E. coli DH5α; 96-well plate, 5×10^5 CFU/mL, 37° C., judged after 8 h. The method, boiled down: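 Log-phase bacteria (OD600 ~0.5) resuspended in LB at 5×10^5 CFU/mL, exposed to recombinant protein at 50, 25, 12.5 μg/mL final in triplicate, 37 °C shaking at 175 rpm. OD600 read every 30 min; MIC is lowest concentration showing no growth.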

Another assay concerns Serratia marcescens. The experiment in a line: MIC against Gram-negative bacteria: Serratia marcescens. The method, boiled down:
as §1

The next assay concerns Citrobacter diversus. In words: MIC against Gram-negative bacteria: Citrobacter diversus. In a few lines:
as §1

In the next assay the test system is Aeromonas hydrophila. The experiment in a line: MIC against Gram-negative bacteria: Aeromonas hydrophila. The method, boiled down: as §1
Another assay has as its system Pseudomonas aeruginosa. In words: MIC against Gram-negative bacteria: Pseudomonas aeruginosa. In a few lines: as §1
The mark [1] stands for this setting: Klebsiella pneumonia, 96-well plate, 5×10^5 CFU/mL, 37° C., 10 h.
The mark [2] stands for this setting: Enterobacter cloacae, 96-well plate, 5×10^5 CFU/mL, 37° C., 10 h.
Setting [3] is: Moraxella catarrhalis, 96-well plate, 5×10^5 CFU/mL, 37° C., 10 h.
Where [4] appears, read: 96-well plate, 5×10^5 CFU/mL, 37° C., 10 h.
The mark [5] stands for this setting: Proteus mirabilis, 96-well plate, 5×10^5 CFU/mL, 37° C., 10 h.
Setting [6] is: Proteus vulgaris, 96-well plate, 5×10^5 CFU/mL, 37° C., 10 h.
[7] abbreviates: Serratia marcescens, 96-well plate, 5×10^5 CFU/mL, 37° C., 10 h.
The mark [8] stands for this setting: Citrobacter diversus, 96-well plate, 5×10^5 CFU/mL, 37° C., 10 h.
Setting [9] is: Aeromonas hydrophila, 96-well plate, 5×10^5 CFU/mL, 37° C., 10 h.
Where [10] appears, read: Pseudomonas aeruginosa, 96-well plate, 5×10^5 CFU/mL, 37° C., 10 h.
Setting [11] is: K. pneumonia, 10 h cultivation at 37° C., 5×10^5 CFU/mL.
Where [12] appears, read: E. cloacae, 10 h cultivation at 37° C., 5×10^5 CFU/mL.
[13] abbreviates: M. catarrhalis, 10 h cultivation at 37° C., 5×10^5 CFU/mL.
[14] abbreviates: 10 h cultivation at 37° C., 5×10^5 CFU/mL.
Where [15] appears, read: P. mirabilis, 10 h cultivation at 37° C., 5×10^5 CFU/mL.
Where [16] appears, read: P. vulgaris, 10 h cultivation at 37° C., 5×10^5 CFU/mL.
Setting [17] is: S. marcescens, 10 h cultivation at 37° C., 5×10^5 CFU/mL.
Where [18] appears, read: C. diversus, 10 h cultivation at 37° C., 5×10^5 CFU/mL.
The mark [19] stands for this setting: A. hydrophila, 10 h cultivation at 37° C., 5×10^5 CFU/mL.
Setting [20] is: P. aeruginosa, 10 h cultivation at 37° C., 5×10^5 CFU/mL.

In the case of “PRT1240 (WGPDCRESCPCHPHGQCEPATGACQCQADRWGARCE; listed as Homo sapiens)”, the “MIC against K. pneumonia” value in the assay on Klebsiella pneumonia (setting [1]) worked out at 12.5 µg/mL. Besides, the “MIC against E. cloacae” value in the assay with Enterobacter cloacae (setting [2]) is 25 µg/mL. Further, in the assay on Moraxella catarrhalis (setting [3]), the “MIC against M. catarrhalis” value was found to be 50 µg/mL. Besides, the “MIC against E. coli BL21” value against E. coli BL21 (setting [4]) turned out to be 50 µg/mL. Further, in the assay with Proteus mirabilis (setting [5]), the “MIC against P. mirabilis” value is 25 µg/mL. For the same substance, in the assay with Proteus vulgaris (setting [6]), the “MIC against P. vulgaris” value is 12.5 µg/mL. The substance further yielded an MIC with E. coli DH5α of 12.5 µg/mL. The “MIC against S. marcescens” value with Serratia marcescens (setting [7]) was determined as 25 µg/mL. Also, the “MIC against C. diversus” value in the assay on Citrobacter diversus (setting [8]) came to 25 µg/mL. Also, the “MIC against A. hydrophila” value in the assay on Aeromonas hydrophila (setting [9]) was 12.5 µg/mL. Besides, the “MIC against P. aeruginosa” value in the assay with Pseudomonas aeruginosa (setting [10]) is 12.5 µg/mL.

“PRT125 (CTGHCAHPRLPCFHGGRCVERYSYYTCDCDLTAFDGPYCN; listed as Homo sapiens)”: in the assay on Klebsiella pneumonia (setting [1]), the “MIC (μg/mL) K. pneumonia” value was 12.5 µg/mL. The “MIC (μg/mL) E. cloacae” value in the assay with Enterobacter cloacae (setting [2]) turned out to be 12.5 µg/mL. The “MIC (μg/mL) M. catarrhalis” value against Moraxella catarrhalis (setting [3]) came to 12.5 µg/mL. Besides, the “MIC (μg/mL) E. coli BL21” value with E. coli BL21 (setting [4]) amounted to 12.5 µg/mL. Moreover, in the assay with Proteus mirabilis (setting [5]), the “MIC (μg/mL) P. mirabilis” value is 25 µg/mL. Besides, in the assay with Proteus vulgaris (setting [6]), the “MIC (μg/mL) P. vulgaris” value is 50 µg/mL. Besides, the MIC with E. coli DH5α was 100 µg/mL. The “MIC (μg/mL) S. marcescens” value against Serratia marcescens (setting [7]) came out at 25 µg/mL. In addition, the “MIC (μg/mL) C. diversus” value against Citrobacter diversus (setting [8]) stood at 25 µg/mL. Moreover, the “MIC (μg/mL) A. hydrophila” value with Aeromonas hydrophila (setting [9]) came out at 50 µg/mL. For the same substance, in the assay on Pseudomonas aeruginosa (setting [10]), the “MIC (μg/mL) P. aeruginosa” value stood at 12.5 µg/mL.

For the substance “PRT43 (CKCNGHASLCNTNTGKCFCTTKGVKGDECQLCEVENRYQGNPLRGTCYY; listed as Homo sapiens)”, in the assay with Klebsiella pneumonia (setting [1]), the “MIC (μg/mL) K. pneumonia” value came out at 25 µg/mL. In the assay on Enterobacter cloacae (setting [2]), the “MIC (μg/mL) E. cloacae” value came out at 12.5 µg/mL. Further, the “MIC (μg/mL) M. catarrhalis” value in the assay with Moraxella catarrhalis (setting [3]) worked out at 25 µg/mL. In addition, in the assay on E. coli BL21 (setting [4]), the “MIC (μg/mL) E. coli BL21” value is 25 µg/mL. For the same substance, in the assay with Proteus mirabilis (setting [5]), the “MIC (μg/mL) P. mirabilis” value turned out to be 12.5 µg/mL. In the assay on Proteus vulgaris (setting [6]), the “MIC (μg/mL) P. vulgaris” value is 25 µg/mL. The MIC against E. coli DH5α was determined as 12.5 µg/mL. Further, the “MIC (μg/mL) S. marcescens” value against Serratia marcescens (setting [7]) was determined as 12.5 µg/mL. Moreover, the “MIC (μg/mL) C. diversus” value against Citrobacter diversus (setting [8]) was found to be 12.5 µg/mL. The “MIC (μg/mL) A. hydrophila” value against Aeromonas hydrophila (setting [9]) was 25 µg/mL. In addition, the “MIC (μg/mL) P. aeruginosa” value in the assay with Pseudomonas aeruginosa (setting [10]) was found to be 12.5 µg/mL.

On to “PRT903 (DINECASDPCRNGANCTDCVDSYTCTCPAGFSGIHCE; listed as Homo sapiens)”, for which the MIC against Klebsiella pneumonia (K. pneumonia, 10 h cultivation at 37° C.) came to 25 µg/mL; in the assay on Enterobacter cloacae (E. cloacae, 10 h cultivation at 37° C.), 50 µg/mL; against Moraxella catarrhalis (M. catarrhalis, 10 h cultivation at 37° C.) it was 12.5 µg/mL; against E. coli BL21 (10 h cultivation at 37° C.), 50 µg/mL; against Proteus mirabilis (P. mirabilis, 10 h cultivation at 37° C.), 25 µg/mL; with Proteus vulgaris (P. vulgaris, 10 h cultivation at 37° C.), 50 µg/mL. The MIC in the assay with E. coli DH5α was determined as 12.5 µg/mL; with Serratia marcescens (S. marcescens, 10 h cultivation at 37° C.), 12.5 µg/mL; in the assay on Citrobacter diversus (C. diversus, 10 h cultivation at 37° C.) it was 50 µg/mL; against Aeromonas hydrophila (A. hydrophila, 10 h cultivation at 37° C.) it was 12.5 µg/mL; in the assay on Pseudomonas aeruginosa (P. aeruginosa, 10 h cultivation at 37° C.) it was 12.5 µg/mL.

Regarding “PRT242 (CEPGCKFGECVGPNKCRCFPGYTGKTC; listed as Homo sapiens)”, the “MIC (μg/mL) K. pneumonia” value against Klebsiella pneumonia (setting [11]) was determined as 50 µg/mL. Moreover, the “MIC (μg/mL) E. cloacae” value in the assay with Enterobacter cloacae (setting [12]) was found to be 12.5 µg/mL. The “MIC (μg/mL) M. catarrhalis” value in the assay with Moraxella catarrhalis (setting [13]) came out at 12.5 µg/mL. Further, in the assay on E. coli BL21 (setting [14]), the “MIC (μg/mL) E. coli BL21” value was determined as 12.5 µg/mL. Moreover, the “MIC (μg/mL) P. mirabilis” value in the assay with Proteus mirabilis (setting [15]) was found to be 12.5 µg/mL. In the assay with Proteus vulgaris (setting [16]), the “MIC (μg/mL) P. vulgaris” value amounted to 12.5 µg/mL. In the assay on E. coli DH5α, this substance showed an MIC of 12.5 µg/mL. The “MIC (μg/mL) S. marcescens” value against Serratia marcescens (setting [17]) came out at 12.5 µg/mL. The “MIC (μg/mL) C. diversus” value in the assay on Citrobacter diversus (setting [18]) worked out at 12.5 µg/mL. Besides, in the assay with Aeromonas hydrophila (setting [19]), the “MIC (μg/mL) A. hydrophila” value amounted to 12.5 µg/mL. Also, in the assay with Pseudomonas aeruginosa (setting [20]), the “MIC (μg/mL) P. aeruginosa” value was 50 µg/mL.

Consider “PRT777 (SGDRCQLQTRCQNGGQWDGLKCQCPSTFYGSSCE; listed as Homo sapiens)”, for which the “MIC (μg/mL) K. pneumonia” value in the assay on Klebsiella pneumonia (setting [11]) is 12.5 µg/mL. In addition, the “MIC (μg/mL) E. cloacae” value with Enterobacter cloacae (setting [12]) is 12.5 µg/mL. In addition, in the assay on Moraxella catarrhalis (setting [13]), the “MIC (μg/mL) M. catarrhalis” value was 12.5 µg/mL. In addition, the “MIC (μg/mL) E. coli BL21” value with E. coli BL21 (setting [14]) is 12.5 µg/mL. Further, in the assay on Proteus mirabilis (setting [15]), the “MIC (μg/mL) P. mirabilis” value amounted to 50 µg/mL. Also, the “MIC (μg/mL) P. vulgaris” value with Proteus vulgaris (setting [16]) was 25 µg/mL. The substance also had an MIC against E. coli DH5α of 50 µg/mL. Also, in the assay on Serratia marcescens (setting [17]), the “MIC (μg/mL) S. marcescens” value was determined as 12.5 µg/mL. In the assay on Citrobacter diversus (setting [18]), the “MIC (μg/mL) C. diversus” value worked out at 50 µg/mL. Further, in the assay on Aeromonas hydrophila (setting [19]), the “MIC (μg/mL) A. hydrophila” value stood at 50 µg/mL. For the same substance, in the assay on Pseudomonas aeruginosa (setting [20]), the “MIC (μg/mL) P. aeruginosa” value came out at 50 µg/mL.

For orientation: MIC means the smallest concentration in the dilution series that meets the test's criterion for growth inhibition. A lower MIC goes with inhibition by little substance.

(Values after patent US9833497B2, “Human originated EGF domain proteins and use of the same” (CHENGDU SOURCEBIO LIMITED-LIABILITY COMPANY, priority 2013, dated 2017).)
